For assay [1], the system named is guinea pigs sensitized with heat-killed M. bovis BCG-Pasteur. In words: Tuberculin skin test in BCG-sensitized guinea pigs. Type of assay: in vivo. The note with it: for skin reaction: 200 μg dose in 100 μl PBS intradermally; for skin reaction / color intensity of skin reaction: after 24 h; for color intensity of skin reaction: 200 μg dose intradermally; for enduration: 200 μg peptide intradermally.
Method: (§1) The tuberculin tests were carried out on guinea pigs sensitized 6 weeks before with heat-killed Mycobacterium tuberculosis strain Peurois or M. bovis BCG-Pasteur.
(§2) Doses of 200 μg of the octopeptide of formula (I) or of the hexadecapeptide of formula (II) in 100 µl of PBS buffer containing Tween 80, were administered intradermally in the ventral side of guinea pigs sensitized as mentioned above.
(§3) The appearance of a delayed-type tuberculin reaction was observed 24 h and 48 h after the injection.

Assay [2] deals with anti-octapeptide antiserum. Format: binding, Rabbits.
For assay [3] the following is noted: peptides obtained after enzymatic digestion of the tuberculin-active protein; cited from earlier work.
In assay [4] the test system is guinea pigs sensitized with heat-killed Mycobacterium tuberculosis strain Peurois. Kind of assay: Tuberculin skin test in M. tuberculosis strain Peurois-sensitized guinea pigs. The note with it: 200 μg dose, after 24 h.
Method: as §1, §2, §3
Another assay concerns BCG-infected mice. The note with it: cited from earlier work.
Assay [5] deals with Mycobacterium tuberculosis-sensitized guinea pigs. As to conditions: cited from earlier work.

Where a SMILES comes first, the peptide text is derived from it. Where no end group is shown, it is not given here.

Data on 5 molecules can be found in patent publication US4460503A, “Tuberculine active peptides and a process for preparing same by chemical synthesis” (priority 1983, dated 1984).

For the molecule `N[C@@H](CC(=O)O)C(=O)NCC(=O)NCC(=O)N[C@@H](CO)C(=O)N[C@@H](CCC(=O)O)C(=O)N[C@@H](CO)C(=O)N[C@@H](CCC(=O)O)C(=O)NCC(=O)O` [octapeptide of formula (I), Asp-Gly-Gly-Ser-Glu-Ser-Glu-Gly] (H-DGGSESEG-OH), in assay [1], the skin reaction is listed as 4 mm, the “color intensity of skin reaction” value is listed as “low color intensity” and the enduration entry is reported as “little or no enduration”. The “amount required to displace half of the label in radioimmunoassays” value in assay [2] is listed as 250 pg.
As for DGGSESEGK [nonapeptide 61-69], the “tuberculin activity in skin tests” value in assay [3] was “residual tuberculin activity”.
As to “DGGSESEGKNGSQMRL [hexadecapeptide of formula (II)]”, in assay [4], the “enduration (average)” value amounted to 12 mm and the “erythematous area, diameter (average)” value turned out to be 11 mm. Besides, in assay [1], the skin reaction is 8 mm, the “color intensity of skin reaction” value is given as “low color intensity” and the enduration entry is listed as “little or no enduration”. Moreover, the “amount required to displace half of the label in radioimmunoassays” value in assay [2] came to 500000 pg. The “level of recognition relative to octapeptide of formula (I)” value in assay [2] (taking into account the molecular weight) was 0.1%.
For the molecule NGSQMR [hexapeptide 70-75], in assay [3], the “tuberculin activity in skin tests” value is reported as “residual tuberculin activity”.
Regarding NGSQMRL [synthetic heptapeptide], the tuberculin activity result in the assay with BCG-infected mice is reported as “devoid of any tuberculin activity”. Further, the “tuberculin activity in skin tests” value in assay [5] was “devoid of any tuberculin activity”.
